In patent publication US6288091A, “Antiherpes virus compounds and methods for their preparation and use” (Boehringer Ingelheim Ltd., priority 1999, dated 2001):
Like-named read-outs stand apart in the source and are kept apart here.

Key:
HCMV (strain AD169) = assay: Inhibition of HCMV replication, plaque reduction assay (PRA, Hs-68 cells); type: cell-based, Human Cytomegalovirus (HCMV); settings: read-out: PRA CMV EC50
Experimental: C) Inhibition of Human Cytomegalovirus (HCMV) Replication
The effect of compounds on the replication of HCMV has been measured by using an ELISA-based assay (ELISA) and a plaque reduction assay (PRA).
Hs-68 cells (ATCC # CRL 1635) were seeded in 12-well plates at 83,000 cells/well in 1 mL of DMEM medium (Gibco Canada Inc.) supplemented with 10% fetal bovine serum (FBS, Gibco Canada Inc.). The plates were incubated for 3 days at 37° to allow the cells to reach 80-90% confluency prior to the assay.
The medium was removed from the cells by aspiration. The cells were then infected with approximately 50 PFU of HCMV (strain AD169, ATCC VR-538) in DMEM medium supplemented with 5% inactivated FBS (assay medium). The virus was allowed to adsorb to cells for 2 h at 37°. Following viral adsorption, the medium was removed from the wells by aspiration. The cells were then incubated with or without 1 mL of appropriate concentrations of test reagent in assay medium. After 4 days of incubation at 37°, the medium was exchanged with fresh medium containing test compound and 4 days later the cells were fixed with 1% aqueous formaldehyde and stained with a 2% crystal violet solution in 20% ethanol in water. Microscopic plaques were counted using a stereomicroscope. Drug effects were calculated as a percent reduction in the number of plaques in the presence of each drug concentration compared to the number observed in the absence of drug. Ganciclovir was used as a positive control in all experiments.
The EC50 values obtained according to this assay for certain thiazolyl derivatives of this invention are listed in the following tables under the heading PRA CMV.

HSV-1 helicase-primase = target: T1, HSV-1 helicase-primase (Human herpesvirus 1, UniProt P10189+P10236); assay: HSV-1 DNA-dependent ATPase assay (inhibition of HSV-1 helicase-primase); type: biochemical
T1 construct: made in house; host or cells: Sf21 insect cells triply infected with recombinant baculoviruses (UL5, UL8, UL52)
Excerpt: A) HSV-1 DNA-Dependent ATP Assay (an in Vitro Assay Based on the Inhibition of HSV-1 Helicase-primase).
HSV-1 helicase-primase holoenzyme was produced in triply infected Sf21 cells using recombinant baculoviruses expressing the UL5, UL8 and UL52 helicase-primase subunits, as described by S. Dracheva et al., J. Biol. Chem. 1995, 270, 14148. The crude enzyme was purified by ammonium sulfate precipitation, Source 15Q® chromatography and Sephacryl® S-300 HR gel filtration (both purification systems can be obtained from Pharmacia Biotech Inc., Montreal, Quebec, Canada), see S. Dracheva et al., supra.
The DNA-dependent ATPase assay, described by J. J. Crute et al., Nucleic Acids Res. 1988, 16, 6585, was modified and used to evaluate the capability of the compounds of Group 1-formula 1 to inhibit HSV-1 helicase-primase activity. The reaction mixtures (80 μL each) contained 40 mM 4-(2-hydroxyethyl)-1-piperazineethanesulfonic acid (HEPES, pH 7.5), 10% (v/v) glycerol, 5.5 mM MgCl2, 1 mM DL-dithiothreitol (DTT), 50 μg/mL acetylated bovine serum albumin, 3.3% (v/v) DMSO, 4 mM ATP, 25 μM single-stranded M13 DNA hybridized to double-tailed 68-mer oligonucleotide and 3 μg/mL HSV-1 helicase-primase. After incubation for 20 min at 34°, formation of inorganic phosphate from hydrolysis of ATP was monitored spectrophotometrically at 650 nm using acidic ammonium molybdate/malachite green reagent, P. A. Lanzetta et al., Anal. Biochem. 1979, 100, 95. DNA-dependent ATPase activity was calculated from the net absorbance change in the presence and absence of inhibition.

HSV-1 strain F or KOS = assay: Inhibition of herpes simplex virus (HSV-1) replication in cell culture (BHK-21 cells, glycoprotein C ELISA); type: cell-based; settings: Human alphaherpesvirus 1, BHK-21, Group 1 Table 1 entries
Experimental: B) Inhibition of Herpes Simplex Virus (HSV-1) Replication in Cell Culture
BHK-21 cells clone 13 (ATCC CCL10) were incubated for two days in 850 cm^2 roller bottles (2×10^7 cells/bottle) with A-MEM medium (Gibco Canada Inc., Burlington, Ontario, Canada) supplemented with 8% (v/v) fetal bovine serum (FBS, Gibco Canada, Inc.). The cells were trypsinized and then 3,000 cells in 100 μL of fresh medium were transferred into each well of a 96-well microtiter plate. The cells were incubated at […] for a period of 3 days to reach a density of 50,000 cells per well. The cells were washed twice with 100 μL of α-MEM supplemented with 2% heat inactivated FBS and incubated for 1-2 hours in 100 μL of the same medium.
Thereafter, the cells were infected with HSV-1 strain F or KOS (multiplicity of infection =0.05 PFU/cell) in 50 μL of α-MEM supplemented with 2% heat inactivated FBS. Following one hour of virus absorption at 37°, the medium was removed and the cells were washed with α-MEM supplemented with 2% heat inactivated FBS (2×100 μL). The cells were incubated with or without 100 μL of the appropriate concentration of test reagent in α-MEM medium supplemented with 2% heat inactivated FBS. After 24 hours of incubation at 37°, the extent of viral replication was determined by an ELISA assay; for instance, the following assay that detects the late glycoprotein C of HSV-1.
Cells were fixed in the microtiter plate with 100 μL of 0.063% glutaraldehyde in phosphate buffered saline for 30 min at room temperature. The microtiter plate was then washed once with casein blocking solution and blocked with 200 μL of the same solution for one hour at room temperature. Thereafter, 100 μL of mAb C11 recognizing the glycoprotein C of HSV-1 (see E. Trybala et al., Journal of General Virology, 1994, 75, 743) was added to each well for two hours at room temperature. The plate was washed three times with phosphate buffered saline containing 0.05% polyoxyethylene (20) sorbitan monooleate. The cells were incubated with 100 μL of sheep anti-mouse IgG horseradish peroxidase for one hour at room temperature in the dark.
The plate was washed three times with 200 μL of the above-noted phosphate buffer saline preparation, and then once with 0.1 M sodium citrate (pH 4.5). Thereafter, 100 μL of orthophenylenediamine dihydrochloride (OPD, Gibco, Canada Inc.) was added to each well. The plate was agitated on a microplate shaker for 30 min in the dark. Color development was monitored at 450 nm using a microplate spectrophotometer.
SAS was used to calculate % inhibition of viral replication and to generate EC50 values.

[1] = Human betaherpesvirus 5, AD169, Hs68, Group 1 Table 1 entries
[2] = Human betaherpesvirus 5, AD169, Hs68, Group 2 Table 1 entries
[3] = Human betaherpesvirus 5, AD169, Hs68, Group 1 Table 2 entries
[4] = Human betaherpesvirus 5, AD169, Hs68, Group 1 Table 3 entries

T1 sequence (P10192 whole entry): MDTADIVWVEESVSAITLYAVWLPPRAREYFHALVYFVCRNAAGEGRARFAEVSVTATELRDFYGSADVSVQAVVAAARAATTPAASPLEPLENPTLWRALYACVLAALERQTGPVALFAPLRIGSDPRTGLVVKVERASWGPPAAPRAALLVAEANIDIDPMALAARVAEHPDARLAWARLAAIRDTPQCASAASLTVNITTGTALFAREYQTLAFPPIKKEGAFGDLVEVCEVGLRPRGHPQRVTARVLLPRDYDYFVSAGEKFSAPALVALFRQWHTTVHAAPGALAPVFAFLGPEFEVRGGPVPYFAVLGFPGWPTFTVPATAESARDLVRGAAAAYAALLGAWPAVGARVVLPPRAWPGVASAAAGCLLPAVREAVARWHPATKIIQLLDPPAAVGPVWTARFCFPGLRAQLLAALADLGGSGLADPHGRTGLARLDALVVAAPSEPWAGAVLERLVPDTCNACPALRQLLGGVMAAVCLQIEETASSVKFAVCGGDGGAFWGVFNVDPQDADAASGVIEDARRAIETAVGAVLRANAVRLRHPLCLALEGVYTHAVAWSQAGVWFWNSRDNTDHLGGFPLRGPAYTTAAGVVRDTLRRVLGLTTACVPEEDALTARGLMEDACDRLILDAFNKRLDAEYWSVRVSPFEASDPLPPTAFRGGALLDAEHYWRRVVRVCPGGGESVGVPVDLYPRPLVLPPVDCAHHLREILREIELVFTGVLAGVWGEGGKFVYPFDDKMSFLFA
T1 sequence (P10236 whole entry): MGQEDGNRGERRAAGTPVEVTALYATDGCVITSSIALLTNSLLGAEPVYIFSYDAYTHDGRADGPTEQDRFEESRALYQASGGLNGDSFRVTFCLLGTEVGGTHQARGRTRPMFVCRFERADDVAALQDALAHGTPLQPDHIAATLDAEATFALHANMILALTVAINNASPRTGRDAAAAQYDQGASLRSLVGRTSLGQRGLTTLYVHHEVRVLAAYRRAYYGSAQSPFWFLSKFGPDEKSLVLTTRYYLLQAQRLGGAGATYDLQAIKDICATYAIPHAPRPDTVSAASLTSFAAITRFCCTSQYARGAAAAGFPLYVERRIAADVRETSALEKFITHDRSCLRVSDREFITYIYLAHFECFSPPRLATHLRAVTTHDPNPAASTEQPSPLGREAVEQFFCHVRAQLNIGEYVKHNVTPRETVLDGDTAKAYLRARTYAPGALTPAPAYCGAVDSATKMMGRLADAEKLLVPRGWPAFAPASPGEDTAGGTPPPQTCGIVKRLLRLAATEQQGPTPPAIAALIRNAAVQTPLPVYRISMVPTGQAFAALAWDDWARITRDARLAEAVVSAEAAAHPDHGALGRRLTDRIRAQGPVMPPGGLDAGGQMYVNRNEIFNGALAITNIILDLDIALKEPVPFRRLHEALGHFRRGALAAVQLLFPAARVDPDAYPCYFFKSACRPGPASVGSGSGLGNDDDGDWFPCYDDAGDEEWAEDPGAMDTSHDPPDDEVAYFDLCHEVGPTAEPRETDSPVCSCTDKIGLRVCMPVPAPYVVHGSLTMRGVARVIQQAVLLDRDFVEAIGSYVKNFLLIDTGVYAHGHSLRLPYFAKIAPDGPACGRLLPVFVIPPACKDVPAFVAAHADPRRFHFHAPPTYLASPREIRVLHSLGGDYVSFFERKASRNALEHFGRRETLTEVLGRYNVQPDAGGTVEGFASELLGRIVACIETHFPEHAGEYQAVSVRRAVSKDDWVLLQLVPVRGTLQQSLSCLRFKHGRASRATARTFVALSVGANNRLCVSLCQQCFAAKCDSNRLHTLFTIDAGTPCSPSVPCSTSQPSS
T1 sequence (P10189 whole entry): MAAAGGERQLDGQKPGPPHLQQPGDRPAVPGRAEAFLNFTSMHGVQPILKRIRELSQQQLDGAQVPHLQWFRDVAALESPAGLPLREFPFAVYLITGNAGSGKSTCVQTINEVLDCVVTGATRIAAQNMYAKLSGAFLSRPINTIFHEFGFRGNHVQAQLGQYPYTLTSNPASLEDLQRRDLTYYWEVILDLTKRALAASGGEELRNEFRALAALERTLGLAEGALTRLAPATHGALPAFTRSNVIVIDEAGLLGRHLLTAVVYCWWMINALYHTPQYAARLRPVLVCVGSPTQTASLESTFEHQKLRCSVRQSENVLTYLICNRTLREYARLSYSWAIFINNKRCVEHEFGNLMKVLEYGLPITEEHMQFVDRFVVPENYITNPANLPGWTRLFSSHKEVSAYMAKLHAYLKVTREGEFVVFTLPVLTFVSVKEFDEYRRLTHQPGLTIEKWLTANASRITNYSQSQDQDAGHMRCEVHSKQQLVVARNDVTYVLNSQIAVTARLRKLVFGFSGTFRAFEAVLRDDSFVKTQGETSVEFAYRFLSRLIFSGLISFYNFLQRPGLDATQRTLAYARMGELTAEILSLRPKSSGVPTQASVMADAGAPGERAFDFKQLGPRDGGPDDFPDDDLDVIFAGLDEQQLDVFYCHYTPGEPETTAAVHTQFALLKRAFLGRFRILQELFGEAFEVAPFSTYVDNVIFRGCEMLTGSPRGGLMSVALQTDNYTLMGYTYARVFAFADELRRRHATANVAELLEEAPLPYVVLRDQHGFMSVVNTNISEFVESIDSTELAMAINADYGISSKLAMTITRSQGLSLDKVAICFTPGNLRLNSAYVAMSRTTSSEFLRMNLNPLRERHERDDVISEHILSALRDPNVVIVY

CN[C@H](Cc1ccccc1)C(=O)Nc1ccc(-c2csc(N)n2)cc1 [Example 18]
EC50 (HCMV (strain AD169); Human betaherpesvirus 5, AD169, Hs68, Group 1 Table 5 entries): > 48 µM | IC50 (HSV-1 helicase-primase; Group 1 Table 5 entries): 24.5 µM

Nc1nc(-c2ccc(NC(=O)CNC(=O)c3cccnc3)cc2)cs1 [Example 20]
EC50 (HCMV (strain AD169); [1]): 60 µM | IC50 (HSV-1 helicase-primase; Group 1 Table 1 entries): 23 µM

C[C@H](c1ccccc1)N(CC(=O)Nc1ccc(-c2csc(N)n2)cc1)C(=O)c1ccncc1 [Example 137]
EC50 (HCMV (strain AD169); [1]): 49 µM | IC50 (HSV-1 helicase-primase; Group 1 Table 1 entries): 0.98 µM

Nc1nc(-c2ccc(NC(=O)N[C@H](CO)Cc3ccccc3)cc2)cs1 [Example 28]
EC50 (HCMV (strain AD169); [2]): 30 µM | IC50 (HSV-1 helicase-primase; Group 2 Table 1 entries): 6.6 µM

Nc1nc(-c2ccc(NC(=O)CN(CCc3ccccc3)C(=O)c3ccncc3)cc2)cs1 [Example 125]
EC50 (HCMV (strain AD169); [1]): 80 µM | IC50 (HSV-1 helicase-primase; Group 1 Table 1 entries): 0.159 µM

Nc1nc(-c2ccc(NC(=O)NCCc3ccccc3)cc2)cs1 [Example 13]
EC50 (HCMV (strain AD169); [2]): > 4 µM | IC50 (HSV-1 helicase-primase; Group 2 Table 1 entries): 37 µM

Nc1nc(-c2ccc(NC(=O)CN(Cc3ccccc3)C(=O)COc3ccccc3)cc2)cs1 [Example 120]
EC50 (HCMV (strain AD169); [1]): 15 µM | IC50 (HSV-1 helicase-primase; Group 1 Table 1 entries): 0.54 µM

Cc1ccccc1CN(CC(=O)Nc1ccc(-c2csc(N)n2)cc1)C(=O)c1cccs1 [Example 128]
EC50 (HCMV (strain AD169); [1]): 28 µM

Cc1ccccc1CN(CC(=O)Nc1ccc(-c2csc(N)n2)cc1)C(=O)COc1c(C)cccc1C [Example 129]
EC50 (HCMV (strain AD169); [1]): 12 µM

Nc1nc(-c2ccc(NC(=O)CCN(Cc3ccccc3)Cc3ccccc3O)cc2)cs1 [Example 30]
EC50 (HCMV (strain AD169); [3]): 13 µM

C[C@@H](c1ccccc1)N(CC(=O)Nc1ccc(-c2csc(N)n2)cc1)C(=O)c1cccnc1 [Example 134]
EC50 (HCMV (strain AD169); [1]): 18 µM | IC50 (HSV-1 helicase-primase; Group 1 Table 1 entries): 0.26 µM

CC(=O)Nc1nc(-c2ccc(NC(=O)CN(C(=O)C3CCCCC3)[C@H](C)c3ccccc3)cc2)cs1 [Example 26]
EC50 (HCMV (strain AD169); [4]): 15 µM

Nc1nc(-c2ccc(NC(=O)CCN(Cc3ccccc3)Cc3cccnc3)cc2)cs1 [Example 29]
EC50 (HCMV (strain AD169); [3]): 14 µM

Cc1cc(C)nc(SCC(=O)N(CC(=O)Nc2ccc(-c3csc(NC(=O)OC(C)(C)C)n3)cc2)Cc2ccccc2)n1 [Example 21]
EC50 (HCMV (strain AD169); [4]): 1.2 µM

Nc1nc(-c2ccc(NC(=O)CNCc3ccc(F)cc3)cc2)cs1 [Example 4]
EC50 (HCMV (strain AD169); [1]): 16 µM | EC50 (HSV-1 strain F or KOS): 1.8 µM | IC50 (HSV-1 helicase-primase; Group 1 Table 1 entries): 3.5 µM

Nc1nc(-c2ccc(NC(=O)CNC(=O)c3ccncc3)cc2)cs1 [Example 21]
EC50 (HCMV (strain AD169); [1]): > 71 µM | EC50 (HSV-1 strain F or KOS): 1.3 µM | IC50 (HSV-1 helicase-primase; Group 1 Table 1 entries): 4.2 µM

Nc1nc(-c2ccc(NC(=O)CN(Cc3ccccc3)C(=O)C3CCCCCC3)cc2)cs1 [Example 37]
EC50 (HCMV (strain AD169); [1]): > 74 µM | EC50 (HSV-1 strain F or KOS): 0.002 µM | IC50 (HSV-1 helicase-primase; Group 1 Table 1 entries): 0.029 µM

Cc1ccccc1CN(CC(=O)Nc1ccc(-c2csc(N)n2)cc1)C(=O)Cc1ccsc1 [Example 132]
EC50 (HCMV (strain AD169); [1]): 14 µM

CN(CCc1ccncc1)C(=O)Nc1ccc(-c2csc(NC(=O)OC(C)(C)C)n2)cc1 [Example 29]
EC50 (HCMV (strain AD169); [2]): 3.9 µM
